Measured values from PubChem BioAssay (NCI).
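All cell lines were grown in 96-well plates and treated with compound for 48 hours. GI50 = concentration required for 50% inhibition of growth. TGI: concentration producing complete growth inhibition.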

Legend:
Experiment in all cases: NCI-60 cell line screen, 48 h
[1] = test system: 786-0 renal
[2] = test system: A498 renal
[3] = test system: A549 NSCLC
[4] = test system: ACHN renal
[5] = test system: BT-549 breast
[6] = test system: CAKI-1 renal
[7] = test system: CCRF-CEM leukemia
[8] = test system: COLO 205 colon
[9] = test system: DU-145 prostate
[10] = test system: HCC-2998 colon
[11] = test system: HCT-116 colon
[12] = test system: HCT-15 colon
[13] = test system: HL-60(TB) leukemia
[14] = test system: HOP-62 NSCLC
[15] = test system: HOP-92 NSCLC
[16] = test system: HS 578T breast
[17] = test system: HT29 colon
[18] = test system: IGROV1 ovarian
[19] = test system: K-562 leukemia
[20] = test system: KM12 colon
[21] = test system: LOX IMVI melanoma
[22] = test system: M14 melanoma
[23] = test system: MALME-3M melanoma
[24] = test system: MCF7 breast
[25] = test system: MDA-MB-231 breast
[26] = test system: MDA-MB-435
[27] = test system: MOLT-4 leukemia
[28] = test system: NCI-H226 lung
[29] = test system: NCI-H23 lung
[30] = test system: NCI-H460 lung
[31] = test system: NCI-H522 lung
[32] = test system: NCI/ADR-RES ovarian
[33] = test system: OVCAR-3 ovarian
[34] = test system: OVCAR-4 ovarian
[35] = test system: OVCAR-5 ovarian
[36] = test system: OVCAR-8 ovarian
[37] = test system: PC-3 prostate
[38] = test system: RPMI-8226 leukemia
[39] = test system: RXF 393 renal
[40] = test system: SF-268 CNS
[41] = test system: SF-295 CNS
[42] = test system: SF-539 CNS
[43] = test system: SK-MEL-2 melanoma
[44] = test system: SK-MEL-28 melanoma
[45] = test system: SK-MEL-5 melanoma
[46] = test system: SK-OV-3 ovarian
[47] = test system: SN12C renal
[48] = test system: SNB-19 CNS
[49] = test system: SNB-75 CNS
[50] = test system: SR leukemia
[51] = test system: SW-620 colon
[52] = test system: T-47D breast
[53] = test system: TK-10 renal
[54] = test system: U251 CNS
[55] = test system: UACC-257 melanoma
[56] = test system: UACC-62 melanoma
[57] = test system: UO-31 renal

Structure (SMILES): Cn1cc(C2=C(c3cn(C)c4c([N+](=O)[O-])cccc34)C(=O)NC2=O)c2ccccc21
- GI50 [1]: > 25 µM
- TGI [1]: > 25 µM
- GI50 [2]: > 25 µM
- TGI [2]: > 25 µM
- GI50 [3]: > 25 µM
- TGI [3]: > 25 µM
- GI50 [4]: > 25 µM
- TGI [4]: > 25 µM
- GI50 [5]: > 25 µM
- TGI [5]: > 25 µM
- GI50 [6]: > 25 µM
- TGI [6]: > 25 µM
- GI50 [7]: > 25 µM
- TGI [7]: > 25 µM
- GI50 [8]: > 25 µM
- TGI [8]: > 25 µM
- GI50 [9]: > 25 µM
- TGI [9]: > 25 µM
- GI50 [10]: > 25 µM
- TGI [10]: > 25 µM
- GI50 [11]: > 25 µM
- TGI [11]: > 25 µM
- GI50 [12]: > 25 µM
- TGI [12]: > 25 µM
- GI50 [13]: > 25 µM
- TGI [13]: > 25 µM
- GI50 [14]: > 25 µM
- TGI [14]: > 25 µM
- GI50 [15]: > 25 µM
- TGI [15]: > 25 µM
- GI50 [16]: > 25 µM
- TGI [16]: > 25 µM
- GI50 [17]: > 25 µM
- TGI [17]: > 25 µM
- GI50 [18]: > 25 µM
- TGI [18]: > 25 µM
- GI50 [19]: > 25 µM
- TGI [19]: > 25 µM
- GI50 [20]: > 25 µM
- TGI [20]: > 25 µM
- GI50 [21]: > 25 µM
- TGI [21]: > 25 µM
- GI50 [22]: > 25 µM
- TGI [22]: > 25 µM
- GI50 [23]: > 25 µM
- TGI [23]: > 25 µM
- GI50 [24]: > 25 µM
- TGI [24]: > 25 µM
- GI50 [25]: > 25 µM
- TGI [25]: > 25 µM
- GI50 [26]: > 25 µM
- TGI [26]: > 25 µM
- GI50 [27]: > 25 µM
- TGI [27]: > 25 µM
- GI50 [28]: > 25 µM
- TGI [28]: > 25 µM
- GI50 [29]: > 25 µM
- TGI [29]: > 25 µM
- GI50 [30]: > 25 µM
- TGI [30]: > 25 µM
- GI50 [31]: > 25 µM
- TGI [31]: > 25 µM
- GI50 [32]: > 25 µM
- TGI [32]: > 25 µM
- GI50 [33]: > 25 µM
- TGI [33]: > 25 µM
- GI50 [34]: > 25 µM
- TGI [34]: > 25 µM
- GI50 [35]: > 25 µM
- TGI [35]: > 25 µM
- GI50 [36]: > 25 µM
- TGI [36]: > 25 µM
- GI50 [37]: > 25 µM
- TGI [37]: > 25 µM
- GI50 [38]: > 25 µM
- TGI [38]: > 25 µM
- GI50 [39]: > 25 µM
- TGI [39]: > 25 µM
- GI50 [40]: > 25 µM
- TGI [40]: > 25 µM
- GI50 [41]: > 25 µM
- TGI [41]: > 25 µM
- GI50 [42]: > 25 µM
- TGI [42]: > 25 µM
- GI50 [43]: > 25 µM
- TGI [43]: > 25 µM
- GI50 [44]: > 25 µM
- TGI [44]: > 25 µM
- GI50 [45]: > 25 µM
- TGI [45]: > 25 µM
- GI50 [46]: > 25 µM
- TGI [46]: > 25 µM
- GI50 [47]: > 25 µM
- TGI [47]: > 25 µM
- GI50 [48]: > 25 µM
- TGI [48]: > 25 µM
- GI50 [49]: > 25 µM
- TGI [49]: > 25 µM
- GI50 [50]: > 25 µM
- TGI [50]: > 25 µM
- GI50 [51]: > 25 µM
- TGI [51]: > 25 µM
- GI50 [52]: > 25 µM
- TGI [52]: > 25 µM
- GI50 [53]: > 25 µM
- TGI [53]: > 25 µM
- GI50 [54]: > 25 µM
- TGI [54]: > 25 µM
- GI50 [55]: > 25 µM
- TGI [55]: > 25 µM
- GI50 [56]: > 25 µM
- TGI [56]: > 25 µM
- GI50 [57]: > 25 µM
- TGI [57]: > 25 µM
